{"source": "the NIST ThermoML archive (doi:10.1021/je301301j)", "key": {"[1]": {"conditions": "Liquid; for viscosity: Concentric cylinders viscometry; for mass density: Vibrating tube method"}, "[2]": {"assay": "xn = mol fraction of the nth substance listed", "conditions": "100 kPa, Liquid, Concentric cylinders viscometry, x1 = 1"}, "[3]": {"assay": "molar heat capacity at constant pressure", "conditions": "Liquid, Flow calorimetry"}}, "note": "Numbers after ± are expanded uncertainties."}
{"smiles": "CCCCO", "note": "[butan-1-ol]", "values": [{"measurement": "viscosity", "setting": "[1]; 293.15 K, 100 kPa", "value": "2.953 ± 0.062", "unit": "mPa·s"}, {"measurement": "viscosity", "setting": "[1]; 303.15 K, 100 kPa", "value": "2.263 ± 0.048", "unit": "mPa·s"}, {"measurement": "viscosity", "setting": "[1]; 313.15 K, 100 kPa", "value": "1.769 ± 0.038", "unit": "mPa·s"}]}
{"smiles": "CCCCO", "note": "[butan-1-ol] + C=CCCCC", "values": [{"measurement": "viscosity", "setting": "[2]; 293.15 K", "value": "2.953 ± 0.062", "unit": "mPa·s"}, {"measurement": "viscosity", "setting": "[2]; 303.15 K", "value": "2.263 ± 0.048", "unit": "mPa·s"}, {"measurement": "viscosity", "setting": "[2]; 313.15 K", "value": "1.769 ± 0.038", "unit": "mPa·s"}]}
{"smiles": "C=CCCCC", "note": "[hex-1-ene]", "values": [{"measurement": "molar heat capacity at constant pressure", "setting": "[3]; 293.15 K, 100 kPa", "value": "179.2 ± 1.1", "unit": "J/K/mol"}, {"measurement": "molar heat capacity at constant pressure", "setting": "[3]; 293.15 K, 5000 kPa", "value": "174.9 ± 1.1", "unit": "J/K/mol"}, {"measurement": "molar heat capacity at constant pressure", "setting": "[3]; 293.15 K, 10000 kPa", "value": "172.7 ± 1.1", "unit": "J/K/mol"}, {"measurement": "molar heat capacity at constant pressure", "setting": "[3]; 293.15 K, 15000 kPa", "value": "169.9 ± 1.1", "unit": "J/K/mol"}, {"measurement": "molar heat capacity at constant pressure", "setting": "[3]; 293.15 K, 20000 kPa", "value": "168.1 ± 1", "unit": "J/K/mol"}, {"measurement": "molar heat capacity at constant pressure", "setting": "[3]; 293.15 K, 25000 kPa", "value": "165.7 ± 1", "unit": "J/K/mol"}, {"measurement": "molar heat capacity at constant pressure", "setting": "[3]; 313.15 K, 100 kPa", "value": "188.8 ± 1.2", "unit": "J/K/mol"}, {"measurement": "molar heat capacity at constant pressure", "setting": "[3]; 313.15 K, 5000 kPa", "value": "185.9 ± 1.1", "unit": "J/K/mol"}, {"measurement": "molar heat capacity at constant pressure", "setting": "[3]; 313.15 K, 10000 kPa", "value": "183.1 ± 1.1", "unit": "J/K/mol"}, {"measurement": "molar heat capacity at constant pressure", "setting": "[3]; 313.15 K, 15000 kPa", "value": "181.6 ± 1.1", "unit": "J/K/mol"}, {"measurement": "molar heat capacity at constant pressure", "setting": "[3]; 313.15 K, 20000 kPa", "value": "179.6 ± 1.1", "unit": "J/K/mol"}, {"measurement": "molar heat capacity at constant pressure", "setting": "[3]; 313.15 K, 25000 kPa", "value": "177.2 ± 1.1", "unit": "J/K/mol"}, {"measurement": "mass density", "setting": "[1]; 273.15 K, 100 kPa", "value": "691.5 ± 0.7", "unit": "kg/m3"}, {"measurement": "mass density", "setting": "[1]; 273.15 K, 1000 kPa", "value": "692.1 ± 0.7", "unit": "kg/m3"}, {"measurement": "mass density", "setting": "[1]; 273.15 K, 2000 kPa", "value": "693 ± 0.7", "unit": "kg/m3"}, {"measurement": "mass density", "setting": "[1]; 273.15 K, 5000 kPa", "value": "695.8 ± 0.7", "unit": "kg/m3"}, {"measurement": "mass density", "setting": "[1]; 273.15 K, 10000 kPa", "value": "700 ± 0.8", "unit": "kg/m3"}, {"measurement": "mass density", "setting": "[1]; 273.15 K, 15000 kPa", "value": "704 ± 0.8", "unit": "kg/m3"}, {"measurement": "mass density", "setting": "[1]; 273.15 K, 20000 kPa", "value": "707.8 ± 0.8", "unit": "kg/m3"}, {"measurement": "mass density", "setting": "[1]; 273.15 K, 30000 kPa", "value": "715 ± 0.8", "unit": "kg/m3"}, {"measurement": "mass density", "setting": "[1]; 273.15 K, 40000 kPa", "value": "721.6 ± 0.9", "unit": "kg/m3"}, {"measurement": "mass density", "setting": "[1]; 273.15 K, 50000 kPa", "value": "727.6 ± 0.9", "unit": "kg/m3"}, {"measurement": "mass density", "setting": "[1]; 273.15 K, 60000 kPa", "value": "733.2 ± 1", "unit": "kg/m3"}, {"measurement": "mass density", "setting": "[1]; 273.15 K, 70000 kPa", "value": "738.7 ± 1", "unit": "kg/m3"}, {"measurement": "viscosity", "setting": "[1]; 293.15 K, 100 kPa", "value": "0.28 ± 0.007", "unit": "mPa·s"}, {"measurement": "mass density", "setting": "[1]; 293.15 K, 100 kPa", "value": "672.8 ± 0.7", "unit": "kg/m3"}, {"measurement": "mass density", "setting": "[1]; 293.15 K, 1000 kPa", "value": "673.8 ± 0.7", "unit": "kg/m3"}, {"measurement": "mass density", "setting": "[1]; 293.15 K, 2000 kPa", "value": "674.9 ± 0.7", "unit": "kg/m3"}, {"measurement": "mass density", "setting": "[1]; 293.15 K, 5000 kPa", "value": "678 ± 0.7", "unit": "kg/m3"}, {"measurement": "mass density", "setting": "[1]; 293.15 K, 10000 kPa", "value": "682.9 ± 0.8", "unit": "kg/m3"}, {"measurement": "mass density", "setting": "[1]; 293.15 K, 15000 kPa", "value": "687.5 ± 0.8", "unit": "kg/m3"}, {"measurement": "mass density", "setting": "[1]; 293.15 K, 20000 kPa", "value": "691.8 ± 0.8", "unit": "kg/m3"}, {"measurement": "mass density", "setting": "[1]; 293.15 K, 30000 kPa", "value": "699.8 ± 0.8", "unit": "kg/m3"}, {"measurement": "mass density", "setting": "[1]; 293.15 K, 40000 kPa", "value": "707 ± 0.9", "unit": "kg/m3"}, {"measurement": "mass density", "setting": "[1]; 293.15 K, 50000 kPa", "value": "713.7 ± 1", "unit": "kg/m3"}, {"measurement": "mass density", "setting": "[1]; 293.15 K, 60000 kPa", "value": "719.9 ± 1", "unit": "kg/m3"}, {"measurement": "mass density", "setting": "[1]; 293.15 K, 70000 kPa", "value": "725.8 ± 1.1", "unit": "kg/m3"}, {"measurement": "viscosity", "setting": "[1]; 303.15 K, 100 kPa", "value": "0.257 ± 0.007", "unit": "mPa·s"}, {"measurement": "viscosity", "setting": "[1]; 313.15 K, 100 kPa", "value": "0.236 ± 0.006", "unit": "mPa·s"}, {"measurement": "mass density", "setting": "[1]; 313.15 K, 100 kPa", "value": "653.8 ± 0.7", "unit": "kg/m3"}, {"measurement": "mass density", "setting": "[1]; 313.15 K, 1000 kPa", "value": "654.9 ± 0.7", "unit": "kg/m3"}, {"measurement": "mass density", "setting": "[1]; 313.15 K, 2000 kPa", "value": "656.2 ± 0.7", "unit": "kg/m3"}, {"measurement": "mass density", "setting": "[1]; 313.15 K, 5000 kPa", "value": "659.9 ± 0.7", "unit": "kg/m3"}, {"measurement": "mass density", "setting": "[1]; 313.15 K, 10000 kPa", "value": "665.5 ± 0.8", "unit": "kg/m3"}, {"measurement": "mass density", "setting": "[1]; 313.15 K, 15000 kPa", "value": "670.8 ± 0.8", "unit": "kg/m3"}, {"measurement": "mass density", "setting": "[1]; 313.15 K, 20000 kPa", "value": "675.7 ± 0.8", "unit": "kg/m3"}, {"measurement": "mass density", "setting": "[1]; 313.15 K, 30000 kPa", "value": "684.6 ± 0.9", "unit": "kg/m3"}, {"measurement": "mass density", "setting": "[1]; 313.15 K, 40000 kPa", "value": "692.6 ± 0.9", "unit": "kg/m3"}, {"measurement": "mass density", "setting": "[1]; 313.15 K, 50000 kPa", "value": "699.9 ± 1", "unit": "kg/m3"}, {"measurement": "mass density", "setting": "[1]; 313.15 K, 60000 kPa", "value": "706.9 ± 1", "unit": "kg/m3"}, {"measurement": "mass density", "setting": "[1]; 313.15 K, 70000 kPa", "value": "713 ± 1.1", "unit": "kg/m3"}, {"measurement": "mass density", "setting": "[1]; 333.15 K, 100 kPa", "value": "634 ± 0.7", "unit": "kg/m3"}, {"measurement": "mass density", "setting": "[1]; 333.15 K, 1000 kPa", "value": "635.4 ± 0.7", "unit": "kg/m3"}, {"measurement": "mass density", "setting": "[1]; 333.15 K, 2000 kPa", "value": "636.9 ± 0.7", "unit": "kg/m3"}, {"measurement": "mass density", "setting": "[1]; 333.15 K, 5000 kPa", "value": "641.3 ± 0.7", "unit": "kg/m3"}, {"measurement": "mass density", "setting": "[1]; 333.15 K, 10000 kPa", "value": "647.8 ± 0.8", "unit": "kg/m3"}, {"measurement": "mass density", "setting": "[1]; 333.15 K, 15000 kPa", "value": "653.9 ± 0.8", "unit": "kg/m3"}, {"measurement": "mass density", "setting": "[1]; 333.15 K, 20000 kPa", "value": "659.5 ± 0.8", "unit": "kg/m3"}, {"measurement": "mass density", "setting": "[1]; 333.15 K, 30000 kPa", "value": "669.5 ± 0.9", "unit": "kg/m3"}, {"measurement": "mass density", "setting": "[1]; 333.15 K, 40000 kPa", "value": "678.4 ± 0.9", "unit": "kg/m3"}, {"measurement": "mass density", "setting": "[1]; 333.15 K, 50000 kPa", "value": "686.3 ± 1", "unit": "kg/m3"}, {"measurement": "mass density", "setting": "[1]; 333.15 K, 60000 kPa", "value": "693.7 ± 1.1", "unit": "kg/m3"}, {"measurement": "mass density", "setting": "[1]; 333.15 K, 70000 kPa", "value": "700.5 ± 1.1", "unit": "kg/m3"}]}
